Key:
NaV1.6 [1] = molecular target: T1, NaV1.6 (Homo sapiens (Human), UniProt Q9UQD0); assay: Sodium Influx Assay (Flux), NaV1.6; assay type: cell-based; settings: Trex HEK293 cells, ANG2 dye, inactivated state;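 further: Tetracycline-induced cells, compounds applied for one hour at room temperature with modulators holding channels open, IC50 from percent inhibition of sodium influx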
NaV1.6 [2] = molecular target: T1, NaV1.6; assay: Electrophysiological Assay (EP), patch voltage clamp, NaV1.6; assay type: cell-based; settings: HEK-293 cells, whole-cell patch clamp;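 further: sodium current recorded at ambient temperature, channels held inactivated then briefly repolarized to −150 mV for 20 ms before a test pulse, control currents in 0.5% DMSO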
NaV1.1 [3] = molecular target: T2, NaV1.1 (Homo sapiens (Human), UniProt P35498); assay: Sodium Influx Assay (Flux), NaV1.1; assay type: cell-based; settings: Trex HEK293 cells, ANG2 dye, inactivated state;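 further: channels co-expressed with human β1 subunit and held open by modulators, cells exposed to compounds for one hour at room temperature, IC50 from percent inhibition of influx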
NaV1.1 [4] = molecular target: T2, NaV1.1; assay: Electrophysiological Assay (EP), patch voltage clamp, NaV1.1; assay type: cell-based; settings: HEK-293 cells, whole-cell patch clamp;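 further: sodium current block measured at ambient temperature, holding at fully inactivating potential, 20 ms repolarization to −150 mV before test pulse, versus 0.5% DMSO control currents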
NaV1.5 = NaV1.5 (Homo sapiens (Human), UniProt Q14524); assay: Sodium Influx Assay (Flux), NaV1.5; settings: read-out: Flux NaV1.5 IC50; Trex HEK293 cells, ANG2 dye, inactivated state
Sequence of NaV1.5 (Q14524 other isoform, or with tags, fused parts or gaps): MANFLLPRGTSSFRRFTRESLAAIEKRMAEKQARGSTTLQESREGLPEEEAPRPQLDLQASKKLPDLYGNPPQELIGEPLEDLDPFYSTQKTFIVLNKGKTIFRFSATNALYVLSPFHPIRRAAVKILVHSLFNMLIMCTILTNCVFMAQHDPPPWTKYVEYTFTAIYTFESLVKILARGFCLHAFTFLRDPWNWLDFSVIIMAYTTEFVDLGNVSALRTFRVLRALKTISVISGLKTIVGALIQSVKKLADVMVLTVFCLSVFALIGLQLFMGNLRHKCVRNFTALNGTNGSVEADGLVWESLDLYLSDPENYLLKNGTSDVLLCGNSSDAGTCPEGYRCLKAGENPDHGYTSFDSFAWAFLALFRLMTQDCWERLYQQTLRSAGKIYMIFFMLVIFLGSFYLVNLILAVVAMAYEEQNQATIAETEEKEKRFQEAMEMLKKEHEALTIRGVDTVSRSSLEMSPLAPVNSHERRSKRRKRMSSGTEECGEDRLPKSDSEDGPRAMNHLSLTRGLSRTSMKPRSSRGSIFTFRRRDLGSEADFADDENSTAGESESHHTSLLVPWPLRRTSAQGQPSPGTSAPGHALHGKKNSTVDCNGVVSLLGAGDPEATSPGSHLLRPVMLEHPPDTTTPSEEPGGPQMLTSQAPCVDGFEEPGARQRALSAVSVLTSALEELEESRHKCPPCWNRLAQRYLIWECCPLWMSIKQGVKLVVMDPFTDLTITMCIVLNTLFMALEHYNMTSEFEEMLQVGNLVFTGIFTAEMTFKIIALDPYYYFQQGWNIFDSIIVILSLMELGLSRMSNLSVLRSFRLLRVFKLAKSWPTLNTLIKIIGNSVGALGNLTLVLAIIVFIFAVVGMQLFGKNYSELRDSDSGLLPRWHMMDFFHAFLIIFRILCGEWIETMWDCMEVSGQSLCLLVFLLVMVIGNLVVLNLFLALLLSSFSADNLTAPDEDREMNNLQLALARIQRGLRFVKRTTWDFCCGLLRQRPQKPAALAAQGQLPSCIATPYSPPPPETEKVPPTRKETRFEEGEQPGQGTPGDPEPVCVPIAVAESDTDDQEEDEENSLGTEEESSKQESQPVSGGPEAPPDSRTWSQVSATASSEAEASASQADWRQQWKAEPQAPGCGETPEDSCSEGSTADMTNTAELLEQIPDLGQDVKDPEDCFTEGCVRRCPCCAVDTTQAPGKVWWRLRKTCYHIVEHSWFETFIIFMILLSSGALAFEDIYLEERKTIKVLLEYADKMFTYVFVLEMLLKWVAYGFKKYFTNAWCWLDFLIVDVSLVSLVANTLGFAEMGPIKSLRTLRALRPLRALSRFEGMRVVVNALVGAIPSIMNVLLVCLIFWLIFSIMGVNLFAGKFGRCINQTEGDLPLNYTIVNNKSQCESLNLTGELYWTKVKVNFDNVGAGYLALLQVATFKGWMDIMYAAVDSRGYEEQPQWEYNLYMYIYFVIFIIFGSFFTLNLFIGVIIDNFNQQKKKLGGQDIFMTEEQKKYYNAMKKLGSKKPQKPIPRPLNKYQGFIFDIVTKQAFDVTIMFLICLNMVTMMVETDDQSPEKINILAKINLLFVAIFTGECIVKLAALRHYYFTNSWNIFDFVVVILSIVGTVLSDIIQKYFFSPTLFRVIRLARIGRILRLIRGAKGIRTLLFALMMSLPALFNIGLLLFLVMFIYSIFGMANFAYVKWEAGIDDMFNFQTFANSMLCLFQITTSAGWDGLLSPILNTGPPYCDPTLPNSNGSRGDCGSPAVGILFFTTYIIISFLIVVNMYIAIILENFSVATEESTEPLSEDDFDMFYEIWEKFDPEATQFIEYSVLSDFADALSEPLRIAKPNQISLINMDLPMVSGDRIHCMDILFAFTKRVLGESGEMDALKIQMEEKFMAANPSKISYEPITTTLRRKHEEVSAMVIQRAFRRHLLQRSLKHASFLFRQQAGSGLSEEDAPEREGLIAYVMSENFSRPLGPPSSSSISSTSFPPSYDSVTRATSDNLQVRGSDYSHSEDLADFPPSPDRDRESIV

T1 sequence (Q9UQD0 whole entry): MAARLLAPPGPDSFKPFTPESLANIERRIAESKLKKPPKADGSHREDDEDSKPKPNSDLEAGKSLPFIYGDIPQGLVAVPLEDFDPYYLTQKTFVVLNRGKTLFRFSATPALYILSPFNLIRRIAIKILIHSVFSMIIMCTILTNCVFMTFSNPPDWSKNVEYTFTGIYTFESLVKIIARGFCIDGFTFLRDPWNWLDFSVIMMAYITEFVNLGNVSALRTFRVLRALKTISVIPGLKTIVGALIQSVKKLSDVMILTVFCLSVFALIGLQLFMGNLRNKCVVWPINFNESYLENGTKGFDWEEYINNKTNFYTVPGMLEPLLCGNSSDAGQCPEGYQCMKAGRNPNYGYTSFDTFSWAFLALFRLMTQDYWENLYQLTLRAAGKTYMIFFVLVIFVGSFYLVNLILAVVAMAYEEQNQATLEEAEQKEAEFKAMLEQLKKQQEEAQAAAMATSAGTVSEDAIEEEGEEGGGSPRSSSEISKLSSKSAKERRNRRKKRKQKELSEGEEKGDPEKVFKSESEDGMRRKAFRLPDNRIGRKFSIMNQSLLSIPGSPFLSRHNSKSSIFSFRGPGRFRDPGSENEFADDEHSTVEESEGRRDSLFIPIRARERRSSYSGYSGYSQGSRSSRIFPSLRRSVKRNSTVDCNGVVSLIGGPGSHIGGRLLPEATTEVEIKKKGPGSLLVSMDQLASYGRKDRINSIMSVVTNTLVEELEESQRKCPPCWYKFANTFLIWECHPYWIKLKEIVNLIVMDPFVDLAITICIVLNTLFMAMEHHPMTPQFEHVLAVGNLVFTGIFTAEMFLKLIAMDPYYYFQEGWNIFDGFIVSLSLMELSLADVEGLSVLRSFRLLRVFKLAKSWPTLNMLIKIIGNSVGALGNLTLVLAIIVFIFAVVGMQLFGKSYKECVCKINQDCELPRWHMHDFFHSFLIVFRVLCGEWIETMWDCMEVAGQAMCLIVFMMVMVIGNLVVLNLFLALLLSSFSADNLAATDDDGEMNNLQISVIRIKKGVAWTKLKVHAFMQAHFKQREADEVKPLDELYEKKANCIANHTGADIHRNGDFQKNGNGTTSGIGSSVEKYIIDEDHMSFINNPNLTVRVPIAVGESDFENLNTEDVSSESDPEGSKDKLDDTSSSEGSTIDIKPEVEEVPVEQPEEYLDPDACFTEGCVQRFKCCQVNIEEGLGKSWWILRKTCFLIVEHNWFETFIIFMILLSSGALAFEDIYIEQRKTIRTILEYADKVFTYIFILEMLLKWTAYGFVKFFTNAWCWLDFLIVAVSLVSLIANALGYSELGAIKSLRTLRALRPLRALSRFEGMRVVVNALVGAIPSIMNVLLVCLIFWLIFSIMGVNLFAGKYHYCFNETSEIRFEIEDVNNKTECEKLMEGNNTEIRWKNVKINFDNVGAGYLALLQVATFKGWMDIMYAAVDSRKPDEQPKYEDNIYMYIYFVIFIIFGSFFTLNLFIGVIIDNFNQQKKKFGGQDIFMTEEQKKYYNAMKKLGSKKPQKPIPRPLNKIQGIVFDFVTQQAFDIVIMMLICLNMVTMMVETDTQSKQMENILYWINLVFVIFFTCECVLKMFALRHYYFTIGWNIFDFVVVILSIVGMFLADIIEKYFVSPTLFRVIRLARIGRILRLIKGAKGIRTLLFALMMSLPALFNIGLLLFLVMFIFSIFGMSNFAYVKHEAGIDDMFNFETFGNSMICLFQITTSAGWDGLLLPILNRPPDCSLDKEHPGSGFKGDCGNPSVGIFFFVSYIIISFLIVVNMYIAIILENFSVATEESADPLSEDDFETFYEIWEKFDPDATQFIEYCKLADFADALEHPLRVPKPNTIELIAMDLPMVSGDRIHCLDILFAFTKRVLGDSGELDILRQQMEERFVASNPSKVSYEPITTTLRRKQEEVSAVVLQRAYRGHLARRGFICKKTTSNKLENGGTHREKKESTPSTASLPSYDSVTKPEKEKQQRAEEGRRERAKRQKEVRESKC

| SMILES | IC50 (NaV1.6 [1]) | IC50 (NaV1.6 [2]) | IC50 (NaV1.1 [3]) | IC50 (NaV1.1 [4]) | IC50 (NaV1.5) |
| --- | --- | --- | --- | --- | --- |
| O=S(=O)(Nc1nccs1)c1cc(Cl)c(N[C@@H](CN2CCC2)c2ccccc2)cc1F [Example 66, (R)-4-((2-(azetidin-1-yl)-1-phenylethyl)amino)-5-chloro-2-fluoro-N-(thiazol-2-yl)benzenesulfonamide 2,2,2-trifluoroacetate] | 1.01 µM | 1.11 µM | 0.908 µM | 10 µM | 30 µM |
| O=S(=O)(Nc1nccs1)c1cc(Cl)c(N[C@H](CN2CCC2)c2ccccc2)cc1F [Example 67, (S)-4-((2-(azetidin-1-yl)-1-phenylethyl)amino)-5-chloro-2-fluoro-N-(thiazol-2-yl)benzenesulfonamide 2,2,2-trifluoroacetate] | 0.426 µM | 0.119 µM | 10.6 µM | 10 µM | 30 µM |
| C[C@H](Oc1ccc(S(=O)(=O)Nc2ncns2)cc1Cl)c1ccccc1 [Example 88, (S)-3-chloro-4-(1-phenylethoxy)-N-(1,2,4-thiadiazol-5-yl)benzenesulfonamide] | 1.04 µM | 0.184 µM | 30 µM | 10 µM | 18.2 µM |
| CC[C@H](Nc1cc(F)c(S(=O)(=O)Nc2cscn2)cc1Cl)c1ccccc1 [Example 89, (S)-5-chloro-2-fluoro-4-((1-phenylpropyl)amino)-N-(thiazol-4-yl)benzenesulfonamide] | 0.948 µM | 0.239 µM | 3.85 µM | 10 µM | 9.09 µM |
| O=S(=O)(Nc1nccs1)c1ccc(N[C@@H](CO)c2ccccc2)c(Cl)c1 [Example 91, (R)-3-chloro-4-((2-hydroxy-1-phenylethyl)amino)-N-(thiazol-2-yl)benzenesulfonamide] | 0.927 µM | 0.341 µM | 10.7 µM | 10 µM | 30 µM |
| O=S(=O)(Nc1cscn1)c1cc(Cl)c(NCc2cccc3ccncc23)cc1F [Example 96, 5-chloro-2-fluoro-4-((isoquinolin-8-ylmethyl)amino)-N-(thiazol-4-yl)benzenesulfonamide 2,2,2-trifluoroacetate] | 0.239 µM | 0.098 µM | 12.6 µM | 10 µM | 16 µM |
| C[C@H](Oc1cc(F)c(S(=O)(=O)Nc2cscn2)cc1Cl)c1ccccc1F [Example 101, (S)-5-chloro-2-fluoro-4-(1-(2-fluorophenyl)ethoxy)-N-(thiazol-4-yl)benzenesulfonamide] | 0.814 µM | 0.462 µM | 9.57 µM | 10 µM | 4.66 µM |
| O=S(=O)(Nc1nccs1)c1ccc(NC2(c3ccccc3)COC2)c(Cl)c1 [Example 103, 3-chloro-4-((3-phenyloxetan-3-yl)amino)-N-(thiazol-2-yl)benzenesulfonamide] | 2.91 µM | 0.796 µM | 16.6 µM | 10 µM | 28.8 µM |
| O=S(=O)(Nc1nccs1)c1cc(Cl)c(NC2(c3ccccc3)CCC2)cc1F [Example 105, 5-chloro-2-fluoro-4-((1-phenylcyclobutyl)amino)-N-(thiazol-2-yl)benzenesulfonamide] | 0.564 µM | 0.027 µM | 3.73 µM | 3.6 µM | 10.6 µM |
| O=S(=O)(Nc1nccs1)c1cc(Cl)c(NC2(c3ccccc3F)CCC2)cc1F [Example 107, 5-chloro-2-fluoro-4-((1-(2-fluorophenyl)cyclobutyl)amino)-N-(thiazol-2-yl)benzenesulfonamide] | 0.656 µM | 0.138 µM | 10.3 µM | 8.62 µM | 7.4 µM |
| C[C@H](Oc1cc(F)c(S(=O)(=O)Nc2nccs2)cc1Cl)c1cccc(F)c1 [Example 114, (S)-5-chloro-2-fluoro-4-(1-(3-fluorophenyl)ethoxy)-N-(thiazol-2-yl)benzenesulfonamide] | 0.977 µM | 0.255 µM | 5.05 µM | 10 µM | 4.64 µM |
| C[C@H](Oc1cc(F)c(S(=O)(=O)Nc2cscn2)cc1Cl)c1c(F)cccc1F [Example 120, (S)-5-chloro-4-(1-(2,6-difluorophenyl)ethoxy)-2-fluoro-N-(thiazol-4-yl)benzenesulfonamide] | 1.39 µM | 0.717 µM | 24.3 µM | 10 µM | 2.42 µM |
| O=S(=O)(Nc1nccs1)c1cc(Cl)c(OCc2ccccc2F)cc1F [Example 122, 5-chloro-2-fluoro-4-((2-fluorobenzyl)oxy)-N-(thiazol-2-yl)benzenesulfonamide] | 1.65 µM | 0.121 µM | 30 µM | 10 µM | 30 µM |

Continued by falling IC50 (NaV1.6 [1]), values first:

| IC50 (NaV1.6 [1]) | IC50 (NaV1.6 [2]) | IC50 (NaV1.1 [3]) | IC50 (NaV1.1 [4]) | SMILES | IC50 (NaV1.5) |
| --- | --- | --- | --- | --- | --- |
| 7.11 µM | 0.955 µM | 30 µM | 10 µM | O=S(=O)(Nc1cccc(F)n1)c1cc(Cl)c(N[C@H](CN2CCCC2)c2ccccc2)cc1F [Example 72, (S)-5-chloro-2-fluoro-N-(6-fluoropyridin-2-yl)-4-((1-phenyl-2-(pyrrolidin-1-yl)ethyl)amino)benzenesulfonamide 2,2,2-trifluoroacetate] | 30 µM |
| 3.87 µM | 1.14 µM | 23.1 µM | 10 µM | O=S(=O)(Nc1cscn1)c1cc(Cl)c(N[C@H](CN2CCCC2)c2ccccc2)cc1F [Example 73, (S)-5-chloro-2-fluoro-4-((1-phenyl-2-(pyrrolidin-1-yl)ethyl)amino)-N-(thiazol-4-yl)benzenesulfonamide] | 30 µM |
| 1.74 µM | 0.099 µM | 11.1 µM | 10 µM | O=S(=O)(Nc1nccs1)c1cc(Cl)c(O[C@H](c2ccccc2)C(F)(F)F)cc1F [Example 80, (R)-5-chloro-2-fluoro-N-(thiazol-2-yl)-4-(2,2,2-trifluoro-1-phenylethoxy)benzenesulfonamide] | 5.75 µM |
| 1.39 µM | 0.135 µM | 17.5 µM | 10 µM | C[C@H](Oc1cc(F)c(S(=O)(=O)Nc2nccs2)cc1Cl)c1ccccc1 [Example 115, (S)-5-chloro-2-fluoro-4-(1-phenylethoxy)-N-(thiazol-2-yl)benzenesulfonamide] | 9.93 µM |
| 1.02 µM | 0.087 µM | 2.23 µM | 10 µM | CN(C)C[C@H](Nc1cc(F)c(S(=O)(=O)Nc2nccs2)cc1Cl)c1ccccc1 [Example 65, (R)-5-chloro-4-((2-(dimethylamino)-1-phenylethyl)amino)-2-fluoro-N-(thiazol-2-yl)benzenesulfonamide 2,2,2-trifluoroacetate] | 30 µM |
| 0.652 µM | 0.143 µM | 22.5 µM | 10 µM | CCC(Nc1ccc(S(=O)(=O)Nc2nccs2)cc1Cl)c1ccccn1 (stereo not shown) [Example 81, 3-chloro-4-((1-(pyridin-2-yl)propyl)amino)-N-(thiazol-2-yl)benzenesulfonamide] | 30 µM |
| 0.582 µM | 0.153 µM | 4.43 µM | 4.51 µM | O=S(=O)(Nc1nccs1)c1ccc(NC2(c3ccccc3)CCC2)c(Cl)c1 [Example 104, 3-chloro-4-((1-phenylcyclobutyl)amino)-N-(thiazol-2-yl)benzenesulfonamide] | 6.29 µM |
| 0.53 µM | 0.055 µM | 5.89 µM | 6.78 µM | C[C@H](Oc1cc(F)c(S(=O)(=O)Nc2nccs2)cc1Cl)c1ccccc1Cl [Example 117, (S)-5-chloro-4-(1-(2-chlorophenyl)ethoxy)-2-fluoro-N-(thiazol-2-yl)benzenesulfonamide] | 6.22 µM |
| 0.521 µM | 0.052 µM | 2.52 µM | 1.85 µM | O=S(=O)(Nc1nccs1)c1cc(Cl)c(NC(CN2CCOCC2)c2ccccc2)cc1F (stereo not shown) [Example 74, 5-chloro-2-fluoro-4-((2-morpholino-1-phenylethyl)amino)-N-(thiazol-2-yl)benzenesulfonamide 2,2,2-trifluoroacetate] | 30 µM |
| 0.31 µM | 0.023 µM | 5.72 µM | 8.94 µM | C[C@H](Oc1cc(F)c(S(=O)(=O)Nc2nccs2)cc1Cl)c1c(F)cccc1F [Example 119, (S)-5-chloro-4-(1-(2,6-difluorophenyl)ethoxy)-2-fluoro-N-(thiazol-2-yl)benzenesulfonamide] | 1.82 µM |
| 0.237 µM | 0.039 µM | 1.54 µM | 4.41 µM | C[C@H](Nc1ccc(S(=O)(=O)Nc2nccs2)cc1Cl)c1ccccc1F [Example 79, (S)-3-chloro-4-((1-(2-fluorophenyl)ethyl)amino)-N-(thiazol-2-yl)benzenesulfonamide] | 2.55 µM |
| 0.234 µM | 0.015 µM | 4.17 µM | 3.1 µM | C[C@H](Nc1cc(F)c(S(=O)(=O)Nc2nccs2)cc1Cl)c1ccccc1Cl [Example 78, (S)-5-chloro-4-((1-(2-chlorophenyl)ethyl)amino)-2-fluoro-N-(thiazol-2-yl)benzenesulfonamide] | 7.01 µM |
| 0.181 µM | 0.036 µM | 30 µM | 10 µM | O=S(=O)(Nc1nccs1)c1cc(Cl)c(N[C@H](CN2CCCC2)c2ccccc2)cc1F [Example 70, (S)-5-chloro-2-fluoro-4-((1-phenyl-2-(pyrrolidin-1-yl)ethyl)amino)-N-(thiazol-2-yl)benzenesulfonamide] | 30 µM |

From patent publication US11174268B2, “Benzenesulfonamide compouds and their use as therapeutic agents” (Xenon Pharmaceuticals Inc., priority 2016, dated 2021)
